Test results from the supplement of paper PMC10307832.

Legend:
Assay in all cases: relative viability (nuclei count vs DMSO), 5 days (fraction); higher = more cells survive
Crenolanib + OSI-027 = compound: CC1(COc2ccc3c(c2)ncn3-c2ccc3cccc(N4CCC(N)CC4)c3n2)COC1 [Crenolanib] + COc1cccc2cc(-c3nc([C@H]4CC[C@H](C(=O)O)CC4)n4ncnc(N)c34)[nH]c12 [OSI-027] (partner 0.5 µM)
Method in brief: (§1)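 Relative viability was taken as the ratio of nuclei in treated wells to nuclei in vehicle wells. Lung cancer cell lines in 1536-well plates received compounds by pin tool one day after seeding, either one drug alone or a fixed anchor-drug dose plus five library-drug doses (not always all listed) in √10 steps. Nuclei were counted on 4× images after 5 days of treatment, and values are medians of duplicate plates.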

Crenolanib + Crizotinib = compound: CC1(COc2ccc3c(c2)ncn3-c2ccc3cccc(N4CCC(N)CC4)c3n2)COC1 [Crenolanib] + C[C@@H](Oc1cc(-c2cnn(C3CCNCC3)c2)cnc1N)c1c(Cl)ccc(F)c1Cl [Crizotinib] (partner 1 µM)
Method in brief: as §1

Crenolanib + Decitabine = compound: CC1(COc2ccc3c(c2)ncn3-c2ccc3cccc(N4CCC(N)CC4)c3n2)COC1 [Crenolanib] + Nc1ncn([C@H]2C[C@H](O)[C@@H](CO)O2)c(=O)n1 [Decitabine] (partner 2 µM)
Method in brief: as §1

Tivantinib + OSI-027 = compound: O=C1NC(=O)[C@@H](c2cn3c4c(cccc24)CCC3)[C@@H]1c1c[nH]c2ccccc12 [Tivantinib] + COc1cccc2cc(-c3nc([C@H]4CC[C@H](C(=O)O)CC4)n4ncnc(N)c34)[nH]c12 [OSI-027] (partner 0.5 µM)
Method in brief: as §1

Row | Cell Line | relative viability (Crenolanib + OSI-027; first compound 0.01 µM) | relative viability (Crenolanib + OSI-027; first compound 0.03162 µM) | relative viability (Crenolanib + OSI-027; first compound 0.1 µM) | relative viability (Crenolanib + OSI-027; first compound 0.3162 µM) | relative viability (Crenolanib + OSI-027; first compound 1 µM) | relative viability (Crenolanib + Crizotinib; first compound 0.01 µM) | relative viability (Crenolanib + Crizotinib; first compound 0.03162 µM) | relative viability (Crenolanib + Crizotinib; first compound 0.1 µM) | relative viability (Crenolanib + Crizotinib; first compound 0.3162 µM) | relative viability (Crenolanib + Crizotinib; first compound 1 µM) | relative viability (Crenolanib + Decitabine; first compound 0.01 µM) | relative viability (Crenolanib + Decitabine; first compound 0.03162 µM) | relative viability (Crenolanib + Decitabine; first compound 0.1 µM) | relative viability (Crenolanib + Decitabine; first compound 0.3162 µM) | relative viability (Crenolanib + Decitabine; first compound 1 µM) | relative viability (Tivantinib + OSI-027; first compound 0.01 µM) | relative viability (Tivantinib + OSI-027; first compound 0.03162 µM) | relative viability (Tivantinib + OSI-027; first compound 0.1 µM) | relative viability (Tivantinib + OSI-027; first compound 0.3162 µM)
1 | NCI-H650 | 0.564 | 0.534 | 0.52 | 0.492 | 0.348 | 0.968 | 0.706 | 0.805 | 0.5 | 0.644 | 0.295 | 0.306 | 0.281 | 0.295 | 0.33 | 0.542 | 0.403 | 0.501 | 0.641
2 | NCI-H1915 | 0.583 | 0.646 | 0.592 | 0.634 | 0.417 | 0.9 | 0.896 | 0.868 | 0.856 | 0.855 | 0.26 | 0.275 | 0.275 | 0.247 | 0.264 | 0.626 | 0.543 | 0.648 | 0.715
3 | SW 1573 | 0.667 | 0.664 | 0.51 | 0.493 | 0.578 | 0.748 | 0.886 | 0.795 | 0.834 | 0.884 | 0.333 | 0.591 | 0.518 | 0.648 | 0.52 | 0.636 | 0.612 | 0.562 | 0.556
4 | ChaGo-K-1 | 0.659 | 0.634 | 0.572 | 0.631 | 0.594 | 1.16 | 1.17 | 1.17 | 1.06 | 1.09 | 0.56 | 0.489 | 0.533 | 0.513 | 0.556 | 0.662 | 0.482 | 0.607 | 0.549
5 | NCI-H1355 | 0.491 | 0.382 | 0.409 | 0.417 | 0.35 | 1.15 | 1.07 | 0.973 | 1.06 | 0.894 | 0.374 | 0.335 | 0.303 | 0.407 | 0.328 | 0.434 | 0.348 | 0.401 | 0.356
6 | NCI-H1651 | 0.77 | 0.668 | 0.715 | 0.674 | 0.702 | 0.895 | 0.924 | 0.855 | 0.937 | 0.826 | 0.678 | 0.583 | 0.592 | 0.589 | 0.638 | 0.846 | 0.654 | 0.625 | 0.713
7 | NCI-H2023 | 0.466 | 0.426 | 0.378 | 0.434 | 0.292 | 0.708 | 0.706 | 0.639 | 0.814 | 0.622 | 0.153 | 0.266 | 0.242 | 0.263 | 0.213 | 0.372 | 0.363 | 0.356 | 0.341
8 | LU99A | 0.305 | 0.318 | 0.257 | 0.331 | 0.264 | 0.565 | 0.654 | 0.615 | 0.558 | 0.568 | 0.976 | 0.844 | 0.897 | 1.07 | 0.975 | 0.295 | 0.295 | 0.296 | 0.249
